Tests used:
WI-38 = assay: Cytotoxicty activity against human WI38 cells measured after 72 hrs by MTT assay; type: cell-based; conditions: WI-38, 72 h
Carbonic anhydrase 4 = Carbonic anhydrase 4 (Homo sapiens, UniProt P22748)
Carbonic anhydrase 7 = Carbonic anhydrase 7 (Homo sapiens, UniProt P43166)
PC-3 [1] = assay: cells; type: functional, cell-based; conditions: Homo sapiens, PC-3, 72 h
Description: Antiproliferative activity against human PC3 cells measured after 72 hrs under CoCl2-induced hypoxic condition by MTT assay

Carbonic anhydrase 9 = Carbonic anhydrase 9 (Homo sapiens, UniProt Q16790)
Carbonic anhydrase 1 = Carbonic anhydrase 1 (Homo sapiens, UniProt P00915)
A549 [2] = assay: cells; type: functional, cell-based; conditions: Homo sapiens, A549, 72 h
Description: Antiproliferative activity against human A549 cells measured after 72 hrs under CoCl2-induced hypoxic condition by MTT assay

A549 [3] = assay: cells; type: functional, cell-based; conditions: Homo sapiens, A549, 72 h; remark: listed apart in the source
Description: Antiproliferative activity against human A549 cells measured after 72 hrs under normoxic condition by MTT assay

HCT-116 [4] = assay: cells; type: functional, cell-based; conditions: Homo sapiens, HCT-116, 72 h
Description: Antiproliferative activity against human HCT116 cells measured after 72 hrs under CoCl2-induced hypoxic condition by MTT assay

PC-3 [5] = assay: cells; type: functional, cell-based; conditions: Homo sapiens, PC-3, 72 h; remark: listed apart in the source
Description: Antiproliferative activity against human PC3 cells measured after 72 hrs under normoxic condition by MTT assay

HCT-116 [6] = assay: cells; type: functional, cell-based; conditions: Homo sapiens, HCT-116, 72 h; remark: listed apart in the source
Description: Antiproliferative activity against human HCT116 cells measured after 72 hrs under normoxic condition by MTT assay

HCT-116 [7] = assay: Induction of apoptosis in human HCT116 cells assessed as downregulation of Bcl-2 expression at normoxic antiproliferative IC50 measured after 48 hrs by ELISA relative to control; type: functional
Carbonic anhydrase 2 = Carbonic anhydrase 2 (Homo sapiens, UniProt P00918)

Sequence of Carbonic anhydrase 4 (P22748 whole entry): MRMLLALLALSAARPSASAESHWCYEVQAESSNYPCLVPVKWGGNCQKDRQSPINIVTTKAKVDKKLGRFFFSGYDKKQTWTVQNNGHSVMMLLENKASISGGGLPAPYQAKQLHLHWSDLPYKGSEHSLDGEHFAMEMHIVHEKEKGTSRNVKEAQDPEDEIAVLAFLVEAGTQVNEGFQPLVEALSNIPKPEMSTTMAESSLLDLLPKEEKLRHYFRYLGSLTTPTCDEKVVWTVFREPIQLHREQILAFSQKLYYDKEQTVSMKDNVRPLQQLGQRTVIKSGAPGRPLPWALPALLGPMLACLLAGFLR
Sequence of Carbonic anhydrase 7 (P43166 whole entry): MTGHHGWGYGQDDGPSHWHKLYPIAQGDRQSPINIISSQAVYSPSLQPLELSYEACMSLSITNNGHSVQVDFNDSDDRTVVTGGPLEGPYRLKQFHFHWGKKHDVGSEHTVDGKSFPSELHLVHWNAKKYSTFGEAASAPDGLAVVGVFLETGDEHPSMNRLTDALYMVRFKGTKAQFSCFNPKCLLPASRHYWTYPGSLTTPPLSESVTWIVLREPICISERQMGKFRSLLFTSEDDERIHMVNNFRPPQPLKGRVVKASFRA
Sequence of Carbonic anhydrase 1 (P00915 whole entry): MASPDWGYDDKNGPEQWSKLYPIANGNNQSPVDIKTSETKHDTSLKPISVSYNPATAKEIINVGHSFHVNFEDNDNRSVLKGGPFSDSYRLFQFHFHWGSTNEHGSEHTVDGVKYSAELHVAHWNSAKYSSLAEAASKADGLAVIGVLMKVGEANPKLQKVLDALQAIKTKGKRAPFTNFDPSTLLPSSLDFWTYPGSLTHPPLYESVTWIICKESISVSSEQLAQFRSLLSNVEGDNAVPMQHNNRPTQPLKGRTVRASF

Row | SMILES | Ki (Carbonic anhydrase 4) [µM] | Ki (Carbonic anhydrase 7) [µM] | IC50 (PC-3 [1]) [µM] | Ki (Carbonic anhydrase 9) [µM] | Ki (Carbonic anhydrase 1) [µM] | IC50 (A549 [2]) [µM] | IC50 (A549 [3]) [µM] | IC50 (HCT-116 [4]) [µM] | IC50 (PC-3 [5]) [µM] | IC50 (HCT-116 [6]) [µM] | Ki (Carbonic anhydrase 2) [µM] | IC50 (WI-38) [µM] | Activity (HCT-116 [7]) [%]
1 | Cc1ccc(C)c2c1NC(=O)NS2(=O)=O | 1.43 | 1.9 | – | 0.368 | 2.54 | – | – | – | – | – | 2.19 | – | –
2 | O=C1Nc2c(C(=O)O)cccc2S(=O)(=O)N1 | 0.38 | 2.8 | – | 0.0912 | 5.78 | – | – | – | – | – | 2.44 | – | –
3 | O=C1Nc2ccc(C(=O)O)cc2S(=O)(=O)N1 | 0.0761 | 4.96 | – | 0.0987 | > 10 | – | – | – | – | – | 6.78 | – | –
4 | O=C1NS(=O)(=O)c2cccc3c2N1CC3 | 3.89 | 1.28 | – | 0.273 | 6.86 | – | – | – | – | – | 1.06 | – | –
5 | CN1C(=O)NS(=O)(=O)c2cc(Cl)ccc21 | 5.88 | 3.24 | – | 0.189 | > 10 | – | – | – | – | – | 2.34 | – | –
6 | O=C1Nc2c(ccc3ccccc23)S(=O)(=O)N1 | 2.67 | 3.95 | – | 0.0602 | 2.07 | – | – | – | – | – | 0.484 | – | –
7 | CN1C(=O)NS(=O)(=O)c2ccccc21 | 3.46 | 7.51 | 16.9 | 0.139 | 3.41 | 16.3 | 19.9 | 7.13 | 23.8 | 10.9 | 0.853 | 40.9 | –
8 | COc1ccc2c(c1)S(=O)(=O)NC(=O)N2 | 1.94 | 1.36 | – | 0.0358 | 3.81 | – | – | – | – | – | 1.92 | – | –
9 | Cc1cc(C)c2c(c1)NC(=O)NS2(=O)=O | 2.69 | 1.79 | – | 0.408 | 1.92 | – | – | – | – | – | 2.94 | – | –
10 | O=C1Nc2ccc(Br)cc2S(=O)(=O)N1 | 1.56 | 0.468 | – | 0.031 | 4.4 | – | – | – | – | – | 2.36 | – | –
11 | O=C1Nc2c(Br)cccc2S(=O)(=O)N1 | 0.854 | 0.62 | – | 0.0733 | 2.32 | – | – | – | – | – | 0.527 | – | –
12 | O=C1NS(=O)(=O)c2ccccc21 [SACCHARIN] | – | – | – | – | > 10 | – | – | – | – | – | – | – | –

The next lines start with results.

Row | Ki (Carbonic anhydrase 4) [µM] | Ki (Carbonic anhydrase 7) [µM] | IC50 (PC-3 [1]) [µM] | Ki (Carbonic anhydrase 9) [µM] | Ki (Carbonic anhydrase 1) [µM] | IC50 (A549 [2]) [µM] | IC50 (A549 [3]) [µM] | IC50 (HCT-116 [4]) [µM] | IC50 (PC-3 [5]) [µM] | IC50 (HCT-116 [6]) [µM] | Ki (Carbonic anhydrase 2) [µM] | SMILES | IC50 (WI-38) [µM] | Activity (HCT-116 [7]) [%]
13 | 0.675 | 0.466 | 12.2 | 0.0787 | 0.866 | 2.68 | 3.53 | 1.5 | 14 | 1.3 | 0.15 | O=C1Nc2ccccc2S(=O)(=O)N1 | 39.9 | 59
14 | 1.23 | 0.975 | – | 0.0639 | 0.969 | – | – | – | – | – | 0.144 | Cc1cccc2c1NC(=O)NS2(=O)=O | – | –
15 | 0.452 | 2.56 | – | 0.0881 | 1.89 | – | – | – | – | – | 3.02 | O=C1Nc2ccc(O)cc2S(=O)(=O)N1 | – | –
16 | 0.461 | 0.126 | – | 0.0584 | 0.547 | – | – | – | – | – | 0.14 | O=C1Nc2c(F)cccc2S(=O)(=O)N1 | – | –
17 | 1.03 | 0.389 | 3.52 | 0.0282 | 0.93 | 7.35 | 10.9 | 7.57 | 16.2 | 5.26 | 0.685 | O=C1Nc2c(Cl)cccc2S(=O)(=O)N1 | 36.6 | –
18 | 0.897 | 0.956 | – | 0.0458 | 1.07 | – | – | – | – | – | 0.872 | Cc1ccc2c(c1)S(=O)(=O)NC(=O)N2 | – | –
19 | 0.709 | 0.436 | 6.53 | 0.0191 | 1.29 | 15 | 18.3 | 2.73 | 12 | 3.86 | 0.534 | O=C1Nc2ccc(F)cc2S(=O)(=O)N1 | 125 | 42
20 | 1.75 | 1.18 | – | 0.0569 | 1.86 | – | – | – | – | – | 1.14 | O=C1Nc2ccc(Cl)cc2S(=O)(=O)N1 | – | –
21 | 1.64 | 0.691 | 0.82 | 0.0258 | 1.27 | 5.74 | 4.77 | 4.18 | 6.31 | 3.85 | 0.764 | Cc1cc(C)c2c(c1)S(=O)(=O)NC(=O)N2 | 23.5 | –

— ChEMBL document CHEMBL4376843 (J Med Chem, 2020)
